Results reported in patent US20140082772A1, “Herbicide-Tolerant Plants” (priority 2010, published 2014).

How the values were obtained:
[1] = test system: spring-type B. napus cultivar, 45A77; details: PM-mutant gene-containing spring-type cultivar 45A77; R. Degenhardt et al., Weed Technology 19, 2005, 608; cited from earlier work
[2] = test system: AHAS-inhibitor tolerant WOSR line; test: Plot pre-emergence crop tolerance (PHYTOX), Example 4, tolerant line; type: in vivo, Brassica napus
Experimental: (§1) Plants of an AHAS-inhibitor tolerant WOSR line and plants of an AHAS-inhibitor susceptible WOSR line are sown side by side in a plot. A pre-emergence treatment of herbicides is applied to the plants by means of fine distributed nozzles. There are four replications of each treatment.
(§2) The evaluation for crop-tolerance is assessed as PHYTOX symptom caused by the chemical compounds carried out using a scale from 0 to 100%, compared to the untreated control plants. Here, 0 means no damage and 100 means complete destruction of the plants.

[3] = test system: AHAS-inhibitor susceptible WOSR line; test: Plot pre-emergence crop tolerance (PHYTOX), Example 4, susceptible line; type: in vivo, Brassica napus
Experimental: as §1, §2

[4] = test system: second AHAS-inhibitor susceptible WOSR line; test: Greenhouse post-emergence herbicide crop damage, Example 2, susceptible line; type: in vivo, Brassica napus; details: post-emergence at GS/BBCH 10, assessed 19 DAT
Experimental: (§3) Plants of an AHAS-inhibitor tolerant WOSR line and plants of a second AHAS-inhibitor susceptible WOSR line are sown in 10 cm pots with a sandy loam. Each pot is planted with two plants, the plants are watered from beneath and fertilized according there requirement. The pots are stored side by side in a greenhouse at 12° C. at the emergence phase. The temperature increases to 15-20° C. three weeks after sowing.
(§4) A post-emergence treatment of herbicides is applied to the plants by means of fine distributed nozzles and a water use rate of 200 L/ha at the growth stage GS/BBCH 10. The herbicides are tested at different rates. Twelve cultivar replicates are carried out per rate.
(§5) The evaluation of efficacy is assessed as crop damage caused by the herbicides using a scale from 0 to 100%, compared to the untreated control plants. Here, 0 means no damage and 100 means complete destruction of the plants. The level of efficacy is assessed 19 days after treatment (DAT). The efficacy results are presented as ED50 values.

AHAS-tolerant SOSR line = test: Plot post-emergence crop tolerance (PHYTOX), Example 3, SOSR; type: in vivo, Brassica napus; details: post-emergence at GS 12/13, 15 DAT, crop GS 13/14, AI rate g/ha: flupyrsulfuron-methyl-sodium 5, thifensulfuron-methyl 15, tritosulfuron 25, tribenuron-methyl 15
Experimental: as §1, with “AHAS-tolerant SOSR” for “AHAS-inhibitor susceptible WOSR”, “post-emergence” for “pre-emergence”, “nozzles at the growth stage GS/BBCH 12/13.” for “nozzles.”
as §2

[5] = test system: first AHAS-inhibitor susceptible WOSR line; test: Greenhouse post-emergence herbicide crop damage, Example 1, susceptible line; type: in vivo, Brassica napus; details: post-emergence at GS/BBCH 12, assessed 21-22 DAT
Experimental: (§6) Each pot is planted with two plants, the plants are watered from beneath and fertilized according there requirement. The pots are stored side by side in a greenhouse at 12° C. at the emergence phase. The temperature increases to 15-20° C. three weeks after sowing.
(§7) A post-emergence treatment of herbicides is applied to the plants by means of fine distributed nozzles and a water use rate of 200 L/ha at the growth stage GS/BBCH 12 (2 true leaf stage). The herbicides are tested at different rates. Five cultivar replicates are carried out per rate.
as §5, with “21-22” for “19”

[6] = test system: AHAS-inhibitor tolerant WOSR line; test: Plot post-emergence crop tolerance (PHYTOX), Example 3, WOSR; type: in vivo, Brassica napus; details: post-emergence at GS 12/13, 15 DAT, crop GS 14/15, AI rate g/ha: flupyrsulfuron-methyl-sodium 5, thifensulfuron-methyl 15, tritosulfuron 25, tribenuron-methyl 15
Experimental: as §1, with “AHAS-tolerant SOSR” for “AHAS-inhibitor susceptible WOSR”, “post-emergence” for “pre-emergence”, “nozzles at the growth stage GS/BBCH 12/13.” for “nozzles.”
as §2

[7] = test system: AHAS-inhibitor tolerant WOSR line; test: Greenhouse post-emergence herbicide crop damage, Example 1, tolerant line; type: in vivo, Brassica napus; details: post-emergence at GS/BBCH 12, assessed 21-22 DAT
Experimental: as §6, §7
as §5, with “21-22” for “19”

[8] = test system: AHAS-inhibitor tolerant WOSR line; test: Greenhouse post-emergence herbicide crop damage, Example 2, tolerant line; type: in vivo, Brassica napus; details: post-emergence at GS/BBCH 10, assessed 19 DAT
Experimental: as §3, §4, §5

[9] = 10 DAT, crop GS 10/11, AI rate g/ha: propoxycarbazone 7, sulfosulfuron 2, flupyrsulfuron-methyl 1.8, amidosulfuron 2.75
[10] = 29 DAT, crop GS 11/13, AI rate g/ha: propoxycarbazone 7, sulfosulfuron 2, flupyrsulfuron-methyl 1.8, amidosulfuron 2.75

Compound	effect of application on the crop [1]	PHYTOX % [2, 9] [%]	PHYTOX % [2, 10] [%]	PHYTOX % [3, 9] [%]	PHYTOX % [3, 10] [%]	ED50 (crop damage, scale 0 to 100% vs untreated control) [4] [g/ai/ha]	PHYTOX % (AHAS-tolerant SOSR line) [%]	ED50 (crop damage, scale 0 to 100% vs untreated control) [5] [g/ai/ha]	PHYTOX % [6] [%]	ED50 (crop damage, scale 0 to 100% vs untreated control) [7] [g/ai/ha]	ED50 (crop damage, scale 0 to 100% vs untreated control) [8] [g/ai/ha]
COc1nc(C)nc(NC(=O)NS(=O)(=O)c2ccsc2C(=O)O)n1 [thifensulfuron]	reduced canola biomass, herbicide injury symptoms, or delayed maturity										
COc1cc(OC)nc(NC(=O)NS(=O)(=O)N(C)S(C)(=O)=O)n1 [Amidosulfuron]		0	0	100	100						
COC(=O)c1ccc(C(F)(F)F)nc1S(=O)(=O)NC(=O)Nc1nc(OC)cc(OC)n1 [Flupyrsulfuron-methyl-sodium]						0.79	19	0.58	11	63316.17	147.97
COC(=O)c1ccccc1S(=O)(=O)NC(=O)N(C)c1nc(C)nc(OC)n1 [Tribenuron-methyl]						0.11	25	2.59	17	25.88	9.11
Trisulfuron-methyl [Trisulfuron-methyl 500]						0.03		3.36		41.81	4.48
COc1ncc(F)c2nc(S(=O)(=O)Nc3c(F)cccc3F)nn12 [Florasulam]						0.28		1.51		6.53	4.9
CCCOc1nn(C(=O)[N-]S(=O)(=O)c2ccccc2C(=O)OC)c(=O)n1C.[Na+] [Propoxycarbazone]		0	0	100	100						
COC(=O)c1ccc(C(F)(F)F)nc1S(=O)(=O)NC(=O)Nc1nc(OC)cc(OC)n1 [Flupyrsulfuron-methyl]		0	0	100	100						
COC(=O)c1sccc1S(=O)(=O)NC(=O)Nc1nc(C)nc(OC)n1 [Thifensulfuron-methyl]							23		13		
CCS(=O)(=O)c1nc2ccccn2c1S(=O)(=O)NC(=O)Nc1nc(OC)cc(OC)n1 [Sulfosulfuron]		0	0	99	99	0.01		1.70		2417.06	3.29
CCCOc1nn(C(=O)[N-]S(=O)(=O)c2ccccc2C(=O)OC)c(=O)n1C.[Na+] [Propoxycarbazone-sodium]						0.17		2.16		67.43	42.07
COc1nc(C)nc(NC(=O)NS(=O)(=O)c2ccccc2Cl)n1 [Chlorsulfuron]						0.04		0.42		2.8	11.2
COC(=O)c1ccccc1S(=O)(=O)NC(=O)Nc1nc(C)nc(OC)n1 [Metsulfuron-methyl]						0.17		0.57		5.06	2.28
COc1nc(NC(=O)NS(=O)(=O)c2ccccc2C(F)(F)F)nc(C(F)(F)F)n1 [Tritosulfuron]						1.76	53	0.39	43	42.30	2.96
